The results in this text go back to patent US20240025906A1 (NEURON23, INC., priority 2022, published 2024).

Structures are written as SMILES. Bounds are passed on as bounds.

Experiment [1] deals with JAK1/TYK2 pSTAT5 (Tyr694/699) in THP-1 cell line. The experiment is described as follows: IFNa-stimulated JAK1/TYK2 pSTAT5 (Tyr694/699) inhibition cellular assay, AlphaLISA. To be noted: Homo sapiens; THP-1 cells, IFNa-stimulated pSTAT5 (Tyr694/699), AlphaLISA (Assay B); read-out: Cellular_THP1_IFNa-pSTATS_TYK2. Type of experiment: cell-based. The method, boiled down:
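pSTAT5 (Tyr694/699) in lysates quantified by AlphaLISA (615 nm) after 30 min IFNa stimulation (100 ng/mL stock) of THP-1 cells. The cells, 2e4 per well in HBSS, had first been exposed 1 h at 37° C. to eight 6-fold compound dilutions, 10000 down to 0.04 nM final. IC50 fitted by 4PL regression, bottom 0, Hill slope −1.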

The target of a further experiment is T1, TYK2 JH2 (Homo sapiens, UniProt P29597).
T1 construct: purchased DiscoverX (KINOMEscan KdELECT service); host or cells: E. coli BL21-derived (T7 phage display) or HEK-293
The experiment can be described thus: TYK2 JH2 binding assay (KINOMEscan KdELECT competitive binding). To be noted: TYK2 JH2 domain, KINOMEscan KdELECT (Assay A); read-out: Biochemical TYK2_DiscoverX_JH2_BND_Kd. The method, boiled down: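 JH2-domain fragment, expressed as T7 phage tag in BL21-derived E. coli or DNA-tagged from HEK-293, competed with test compound against bead-immobilized biotinylated ligand in binding buffer (0.9% DMSO). 1 h shaking at room temperature; bound kinase eluted with 0.5 μM free ligand and quantified by qPCR. Kd from 11-point 3-fold dilutions.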

T1 sequence (P29597 589-875 limits assumed): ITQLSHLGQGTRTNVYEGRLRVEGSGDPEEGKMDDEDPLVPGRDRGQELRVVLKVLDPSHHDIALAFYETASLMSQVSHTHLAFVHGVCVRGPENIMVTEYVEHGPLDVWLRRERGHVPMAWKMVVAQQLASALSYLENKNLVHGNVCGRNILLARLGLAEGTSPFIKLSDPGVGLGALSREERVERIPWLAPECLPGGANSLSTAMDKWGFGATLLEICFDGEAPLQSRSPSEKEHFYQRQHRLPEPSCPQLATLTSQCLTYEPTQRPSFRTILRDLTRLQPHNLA

For `CNc1ncc(-c2nc3ccc(C4=CCOCC4)cn3n2)c2cc(NC(=O)C3CC3)ncc12` [Example 1034], in experiment [1], the IC50 was not above 500 nM. Also, the Kd at TYK2 JH2 was not above 100 nM.

As to `CNc1ncc(-c2nc3ccc(C4CCOCC4)cn3n2)c2cc(NC(=O)C3CC3)ncc12` [Example 1035], the IC50 in experiment [1] was not above 500 nM. In addition, the Kd on TYK2 JH2 is not above 100 nM.

`CNc1ncc(-c2nc3c(F)cc(N4CCOCC4)cn3n2)c2cc(NC(=O)C3CC3)ncc12` [Example 1036]: the IC50 in experiment [1] was not above 500 nM. For the same compound, at TYK2 JH2, the Kd was not above 100 nM.

As to `CNc1ncc(-c2nc3ccc(N4CC(C)(O)C4)cn3n2)c2cc(NC(=O)C3CC3)ncc12` [Example 1037], the IC50 in experiment [1] was not above 500 nM. On TYK2 JH2, the Kd is not above 100 nM.

`CNc1ncc(-c2nc3ccc(-n4cccn4)cn3n2)c2cc(NC(=O)C3CC3)ncc12` [Example 1038]: in experiment [1], the IC50 is not above 500 nM. For the same compound, the Kd on TYK2 JH2 was not above 100 nM.

As for `CNc1ncc(-c2nc3cccc(OC)n3n2)c2cc(NC(=O)C3CC3)ncc12` [Example 1039], the IC50 in experiment [1] was not above 500 nM. The Kd on TYK2 JH2 is not above 100 nM.

As for `CNc1ncc(-c2nc3ccc(C(F)F)cn3n2)c2cc(NC(=O)C3CC3)ncc12` [Example 1040], the IC50 in experiment [1] is not above 500 nM. In addition, the Kd at TYK2 JH2 is not above 100 nM.

With `CNc1ncc(-c2nc3ccc(C(C)(C)O)cn3n2)c2cc(NC(=O)C3CC3)ncc12` [Example 1041], the IC50 in experiment [1] was not above 500 nM. At TYK2 JH2, the Kd was not above 100 nM.

For the compound `CNc1ncc(-c2nc3ccc(-c4ccn(C)n4)cn3n2)c2cc(NC(=O)C3CC3)ncc12` [Example 1042], the IC50 in experiment [1] is not above 500 nM. In addition, on TYK2 JH2, the Kd is not above 100 nM.

For the compound `CNc1ncc(-c2nc3ccc(N4CCOC(C(C)O)C4)cn3n2)c2cc(NC(=O)C3CC3)ncc12` (stereo not drawn) [Example 1043], in experiment [1], the IC50 was not above 500 nM. The Kd at TYK2 JH2 was not above 100 nM.

Take `CNc1ncc(-c2nc3ccc(N4CCOC(C(C)(C)F)C4)cn3n2)c2cc(NC(=O)C3CC3)ncc12` (stereo not drawn) [Example 1048]: in experiment [1], the IC50 is not above 500 nM. Also, on TYK2 JH2, the Kd is not above 100 nM.

For the compound `CNc1ncc(-c2cn3cc(N4CCO[C@H](C)C4)ccc3n2)c2cc(NC(=O)C3CC3)ncc12` [Example 1051], the IC50 in experiment [1] was not above 500 nM. On TYK2 JH2, the Kd is not above 100 nM.

For the compound `CNc1ncc(-c2cn3cc(N4CCO[C@@H](C)C4)ccc3n2)c2cc(NC(=O)C3CC3)ncc12` [Example 1052], the IC50 in experiment [1] was not above 500 nM. The Kd on TYK2 JH2 is not above 100 nM.

Regarding `CNc1ncc(-c2nc3ccc(N4CCOC(CCCO)C4)cn3n2)c2cc(NC(=O)C3CC3)ncc12` (stereo not drawn) [Example 1053], the IC50 in experiment [1] was not above 500 nM. Besides, the Kd on TYK2 JH2 was not above 100 nM.

With `CNc1ncc(-c2cc3cc(OC)ccc3o2)c2cc(NC(=O)C3CC3)ncc12` [Example 1054], in experiment [1], the IC50 is not above 500 nM. Besides, the Kd on TYK2 JH2 was not above 100 nM.

Turning to `CNc1ncc(-c2cn3cc(C)cc(F)c3n2)c2cc(NC(=O)C3CC3)ncc12` [Example 1055], the IC50 in experiment [1] is not above 500 nM. On TYK2 JH2, the Kd was not above 100 nM.

As to `CNc1ncc(-c2cn3cc(C)ccc3n2)c2cc(NC(=O)C3CC3)ncc12` [Example 1056], the IC50 in experiment [1] was not above 500 nM. Besides, the Kd on TYK2 JH2 was not above 100 nM.

Consider `CNc1ncc(-c2nc3cc(N4CCOC(C(F)F)C4)ccc3o2)c2cc(NC(=O)[C@H]3C[C@H]3C)ncc12` (stereo partly drawn) [Example 1057, (1S,2R)—N-(5-(5-(2-(difluoromethyl)morpholino)benzo[d]oxazol-2-yl)-8-(methylamino)-2,7-naphthyridin-3-yl)-2-methylcyclopropane-1-carboxamide], for which the IC50 in experiment [1] is not above 500 nM. Also, at TYK2 JH2, the Kd was not above 100 nM.

With `CNc1ncc(-c2nc3cc(N4CCO[C@H](C(F)F)C4)ccc3o2)c2cc(NC(=O)[C@H]3C[C@H]3C)ncc12` [Example 1058], the IC50 in experiment [1] was not above 500 nM. The Kd on TYK2 JH2 was not above 100 nM.

In the case of `CNc1ncc(-c2nc3cc(N4CCO[C@@H](C(F)F)C4)ccc3o2)c2cc(NC(=O)[C@H]3C[C@H]3C)ncc12` [Example 1059], in experiment [1], the IC50 was not above 500 nM. Further, on TYK2 JH2, the Kd is not above 100 nM.

In the case of `CNc1ncc(-c2nc3cc(OC)ccc3o2)c2cc(NC(=O)[C@H]3C[C@@H]3C)ncc12` [Example 1060, (1S,2S)-N-(5-(5-methoxybenzo[d]oxazol-2-yl)-8-(methylamino)-2,7-naphthyridin-3-yl)-2-methylcyclopropane-1-carboxamide], the IC50 in experiment [1] was not above 500 nM. The Kd on TYK2 JH2 was not above 100 nM.

With `CNc1ncc(-c2nc3cc(OC)ccc3o2)c2cc(NC(=O)[C@@H]3C[C@H]3C)ncc12` [Example 1061, (1R,2R)-N-(5-(5-methoxybenzo[d]oxazol-2-yl)-8-(methylamino)-2,7-naphthyridin-3-yl)-2-methylcyclopropane-1-carboxamide], the IC50 in experiment [1] is not above 500 nM. In addition, at TYK2 JH2, the Kd was not above 100 nM.

Regarding `CNc1ncc(-c2nc3cc(N4C[C@@H](C)O[C@@H](C)C4)ccc3o2)c2cc(NC(=O)[C@@H]3C[C@@H]3F)ncc12` [Example 1062, (1S,2S)-N-[5-[5-[(2R,6S)-2,6-dimethylmorpholin-4-yl]-1,3-benzoxazol-2-yl]-8-(methylamino)-2,7-naphthyridin-3-yl]-2-fluoro-cyclopropanecarboxamide], in experiment [1], the IC50 is not above 500 nM. Besides, the Kd on TYK2 JH2 was not above 100 nM.

For `CNc1ncc(-c2nc3cc(N4C[C@@H](C)O[C@@H](C)C4)ccc3o2)c2cc(NC(=O)[C@H]3C[C@H]3C)ncc12` [Example 1063, (1S,2R)-N-[5-[5-[(2R,6S)-2,6-dimethylmorpholin-4-yl]-1,3-benzoxazol-2-yl]-8-(methylamino)-2,7-naphthyridin-3-yl]-2-methyl-cyclopropanecarboxamide], in experiment [1], the IC50 is not above 500 nM. In addition, at TYK2 JH2, the Kd is not above 100 nM.

Regarding `CNc1ncc(-c2nc3cc(N4CCOCC4)ccc3o2)c2cc(NC(=O)C3C[C@@H]3C(F)(F)F)ncc12` (stereo partly drawn) [Example 1065, N-(8-(methylamino)-5-(5-morpholinobenzo[d]oxazol-2-yl)-2,7-naphthyridin-3-yl)-2-(trifluoromethyl)cyclopropane-1-carboxamide], in experiment [1], the IC50 is not above 500 nM. Besides, on TYK2 JH2, the Kd is not above 100 nM.

For `CNc1ncc(-c2nc3cc(N4C[C@H](C)O[C@@H](C)C4)ccc3o2)c2cc(NC(=O)[C@H]3C[C@H]3C)ncc12` [Example 1068, (1S,2R)-N-[5-[5-[(2S,6S)-2,6-dimethylmorpholin-4-yl]-1,3-benzoxazol-2-yl]-8-(methylamino)-2,7-naphthyridin-3-yl]-2-methyl-cyclopropanecarboxamide], the IC50 in experiment [1] is not above 500 nM. Besides, on TYK2 JH2, the Kd was not above 100 nM.

As for `CNc1ncc(-c2nc3cc(N4C[C@@H](C)O[C@H](C)C4)ccc3o2)c2cc(NC(=O)[C@H]3C[C@H]3C)ncc12` [Example 1070, (1S,2R)-N-(5-(5-((2R,6R)-2,6-dimethylmorpholino)benzo[d]oxazol-2-yl)-8-(methylamino)-2,7-naphthyridin-3-yl)-2-methylcyclopropane-1-carboxamide], the IC50 in experiment [1] was not above 500 nM. For the same compound, the Kd at TYK2 JH2 is not above 100 nM.

With `CNc1ncc(-c2nc3ccc(N4CCOCC4)cn3n2)c2cc(NC(=O)C3CC3(F)F)ncc12` (stereo not drawn) [Example 1071, 2,2-difluoro-N-(8-(methylamino)-5-(6-morpholino-[1,2,4]triazolo[1,5-a]pyridin-2-yl)-2,7-naphthyridin-3-yl)cyclopropane-1-carboxamide], the IC50 in experiment [1] was not above 500 nM. The Kd at TYK2 JH2 was not above 100 nM.

As to `CNc1ncc(-c2nc3ccc(N4CCOCC4)cn3n2)c2cc(NC(=O)C3(C(F)F)CC3)ncc12` [Example 1072, 1-(difluoromethyl)-N-[8-(methylamino)-5-(6-morpholino-[1,2,4]triazolo[1,5-a]pyridin-2-yl)-2,7-naphthyridin-3-yl]cyclopropanecarboxamide], in experiment [1], the IC50 was not above 500 nM. For the same compound, the Kd on TYK2 JH2 is not above 100 nM.

`CNc1ncc(C#Cc2ccc(OCF)cc2)c2cc(NC(=O)[C@H]3C[C@H]3C)ncc12` [Example 1073, (1S,2R)-N-[5-[2-[4-(fluoromethoxy)phenyl]ethynyl]-8-(methylamino)-2,7-naphthyridin-3-yl]-2-methyl-cyclopropanecarboxamide]: the IC50 in experiment [1] was not above 500 nM. The Kd at TYK2 JH2 is not above 100 nM.

In the case of `CNc1ncc(C#Cc2ccc(N3CCOCC3)cc2)c2cc(NC(=O)[C@H]3C[C@H]3C)ncc12` [Example 1076, (1S,2R)-2-methyl-N-(8-(methylamino)-5-((4-morpholinophenyl)ethynyl)-2,7-naphthyridin-3-yl)cyclopropane-1-carboxamide], the IC50 in experiment [1] is not above 500 nM. At TYK2 JH2, the Kd was not above 100 nM.

Take `CCC1CN(c2ccc3nc(-c4cnc(NC)c5cnc(NC(=O)[C@H]6C[C@H]6C)cc45)nn3c2)CCO1` (stereo partly drawn) [Example 1077, (1S,2R)-N-[5-[6-(2-ethylmorpholin-4-yl)-[1,2,4]triazolo[1,5-a]pyridin-2-yl]-8-(methylamino)-2,7-naphthyridin-3-yl]-2-methyl-cyclopropanecarboxamide]: the IC50 in experiment [1] was not above 500 nM. Further, at TYK2 JH2, the Kd was not above 100 nM.

Turning to `CNc1ncc(-c2nc3ccc(N4CCO[C@@H](C)C4)cn3n2)c2cc(NC(=O)C3CC3(C)C)ncc12` (stereo partly drawn) [Example 1080, 2,2-dimethyl-N-(8-(methylamino)-5-(6-((S)-2-methylmorpholino)-[1,2,4]triazolo[1,5-a]pyridin-2-yl)-2,7-naphthyridin-3-yl)cyclopropane-1-carboxamide], the IC50 in experiment [1] was not above 500 nM. Moreover, on TYK2 JH2, the Kd is not above 100 nM.
